This note sets out measurements from ChEMBL document CHEMBL1153912, “Antiproliferative effects of peracetylated naphthoxylosides” (Bioorg Med Chem Lett, 2009).

Data set [1] is described as follows: Antiproliferative activity against human HFL1 cells after 96 hrs by crystal violet assay. The data set is classed as cell-based. As to conditions: read-out: ED50.
The test system of a further data set is HFL1. Nature of the data set: Induction of glycosaminoglycan synthesis priming in human HFL1 cells assessed as ratio of fractions containing free glycosaminoglycan chains in drug to untreated control. Further: test concentration or dose not given here. The data set is classed as cell-based.
Data set [2] relates to T-24. The data set can be described thus: Induction of glycosaminoglycan synthesis priming in human T24 cells assessed as ratio of fractions containing free glycosaminoglycan chains in drug to untreated control. Further: test concentration or dose not given here. The data set is classed as functional.
The subject of data set [3] is T-24. The data set can be described thus: Antiproliferative activity against human T24 cells after 96 hrs by crystal violet assay. The data set is classed as functional. The settings on record: T-24, 96 h, read-out: ED50 (the source's name).

As for `CC(=O)Oc1ccc2cccc(O[C@@H]3OC[C@@H](OC(C)=O)[C@H](OC(C)=O)[C@H]3OC(C)=O)c2c1`, the GI50 at 96 h in data set [1] was determined as 80 µM. The Ratio came to 6.2 with HFL1 and 8.2 in the data set with T-24 [2]. The EC50 with T-24 [3] is 170 µM.
For `CC(=O)Oc1cc2ccccc2cc1O[C@@H]1OC[C@@H](OC(C)=O)[C@H](OC(C)=O)[C@H]1OC(C)=O`, in data set [1], the GI50 at 96 h worked out at 75 µM. For the same molecule, the Ratio is given as 2.2 in the data set with HFL1 and 4.6 with T-24 [2]. In the data set with T-24 [3], the EC50 amounted to 260 µM.
Take `CC(=O)Oc1ccc2c(O[C@@H]3OC[C@@H](OC(C)=O)[C@H](OC(C)=O)[C@H]3OC(C)=O)cccc2c1`: the GI50 at 96 h in data set [1] came to 80 µM. Besides, the figures for the Ratio in the data set with HFL1 and with T-24 [2] were 1.8 and 6.4, respectively. The EC50 with T-24 [3] turned out to be 110 µM.
As to `CC(=O)Oc1ccc2ccccc2c1O[C@@H]1OC[C@@H](OC(C)=O)[C@H](OC(C)=O)[C@H]1OC(C)=O`, the GI50 at 96 h in data set [1] was 65 µM. Moreover, the Ratio with HFL1 was determined as 0.6; in the data set with T-24 [2] it was 0.5. Further, the EC50 in the data set with T-24 [3] amounted to 170 µM.
The corresponding values for `CC(=O)O[C@@H]1[C@@H](OC(C)=O)[C@H](Oc2ccc3ccccc3c2O[C@@H]2OC[C@@H](OC(C)=O)[C@H](OC(C)=O)[C@H]2OC(C)=O)OC[C@H]1OC(C)=O` are 5 µM, 0.8, 1.4 and 25 µM.
Take `CC(=O)Oc1cccc2c(O[C@@H]3OC[C@@H](OC(C)=O)[C@H](OC(C)=O)[C@H]3OC(C)=O)cccc12`: the GI50 at 96 h in data set [1] stood at 90 µM. Also, the Ratio is given as 2.7 in the data set with HFL1 and 6.1 with T-24 [2]. Also, the EC50 with T-24 [3] stood at 170 µM.
The matching figures for `CC(=O)O[C@@H]1[C@@H](OC(C)=O)[C@H](Oc2ccc3c(O[C@@H]4OC[C@@H](OC(C)=O)[C@H](OC(C)=O)[C@H]4OC(C)=O)cccc3c2)OC[C@H]1OC(C)=O`: 160 µM, 12.7, 8.8 and 100 µM.
With `CC(=O)Oc1cccc2cccc(O[C@@H]3OC[C@@H](OC(C)=O)[C@H](OC(C)=O)[C@H]3OC(C)=O)c12`, the GI50 at 96 h in data set [1] came out at 110 µM. Also, the Ratio came out at 0.8 in the data set on HFL1 and 2.4 in the data set on T-24 [2]. Further, the EC50 in the data set with T-24 [3] amounted to 205 µM.
Regarding `CC(=O)O[C@@H]1[C@@H](OC(C)=O)[C@H](Oc2ccc(O[C@@H]3OC[C@@H](OC(C)=O)[C@H](OC(C)=O)[C@H]3OC(C)=O)c3ccccc23)OC[C@H]1OC(C)=O`, in data set [1], the GI50 at 96 h turned out to be 15 µM. Further, the values for the Ratio in the data set on HFL1 and in the data set with T-24 [2] were 13.6 and 8, respectively. Moreover, the EC50 in the data set with T-24 [3] was 140 µM.
Turning to `CC(=O)O[C@@H]1[C@@H](OC(C)=O)[C@H](Oc2ccc3cccc(O[C@@H]4OC[C@@H](OC(C)=O)[C@H](OC(C)=O)[C@H]4OC(C)=O)c3c2)OC[C@H]1OC(C)=O`, the GI50 at 96 h in data set [1] turned out to be 135 µM. The Ratio in the data set with HFL1 came out at 11.1; in the data set on T-24 [2] it was 0.5. Also, in the data set on T-24 [3], the EC50 was determined as 110 µM.
`CC(=O)Oc1cc(O[C@@H]2OC[C@@H](OC(C)=O)[C@H](OC(C)=O)[C@H]2OC(C)=O)c2ccccc2c1`: in data set [1], the GI50 at 96 h stood at 20 µM. The Ratio in the data set on HFL1 was determined as 2.2; in the data set with T-24 [2], 4.5. In addition, the EC50 in the data set with T-24 [3] worked out at 25 µM.
The matching figures for `CC(=O)O[C@@H]1[C@@H](OC(C)=O)[C@H](Oc2cc(O[C@@H]3OC[C@@H](OC(C)=O)[C@H](OC(C)=O)[C@H]3OC(C)=O)c3ccccc3c2)OC[C@H]1OC(C)=O`: 20 µM, 4.7, 3.4 and 40 µM.
Take `CC(=O)O[C@@H]1[C@@H](OC(C)=O)[C@H](Oc2ccc3cc(O[C@@H]4OC[C@@H](OC(C)=O)[C@H](OC(C)=O)[C@H]4OC(C)=O)ccc3c2)OC[C@H]1OC(C)=O`: in data set [1], the GI50 at 96 h was 55 µM. In addition, the results for the Ratio in the data set on HFL1 and in the data set with T-24 [2] were 15.5 and 8.2, respectively. Moreover, the EC50 in the data set with T-24 [3] turned out to be 320 µM.
Regarding `CC(=O)O[C@@H]1[C@@H](OC(C)=O)[C@H](Oc2cccc3c(O[C@@H]4OC[C@@H](OC(C)=O)[C@H](OC(C)=O)[C@H]4OC(C)=O)cccc23)OC[C@H]1OC(C)=O`, in data set [1], the GI50 at 96 h was 10 µM. Besides, the Ratio amounted to 5.4 in the data set with HFL1 and 6.9 in the data set on T-24 [2]. Also, the EC50 in the data set on T-24 [3] amounted to 170 µM.
`CC(=O)Oc1ccc2cc(O[C@@H]3OC[C@@H](OC(C)=O)[C@H](OC(C)=O)[C@H]3OC(C)=O)ccc2c1`: the GI50 at 96 h in data set [1] came out at 80 µM. For the same molecule, the Ratio with HFL1 stood at 2.5; with T-24 [2], 5.4. Further, the EC50 in the data set with T-24 [3] was found to be 45 µM.
Regarding `CC(=O)O[C@@H]1[C@@H](OC(C)=O)[C@H](Oc2cccc3cccc(O[C@@H]4OC[C@@H](OC(C)=O)[C@H](OC(C)=O)[C@H]4OC(C)=O)c23)OC[C@H]1OC(C)=O`, the GI50 at 96 h in data set [1] was determined as 20 µM. Also, the Ratio turned out to be 2.4 in the data set on HFL1 and 1.7 with T-24 [2]. Besides, in the data set with T-24 [3], the EC50 is 190 µM.
For the molecule `CC(=O)Oc1cccc2ccc(O[C@@H]3OC[C@@H](OC(C)=O)[C@H](OC(C)=O)[C@H]3OC(C)=O)cc12`, the GI50 at 96 h in data set [1] amounted to 65 µM. For the same molecule, the figures for the Ratio in the data set on HFL1 and with T-24 [2] were 2.1 and 4.8, respectively. In the data set with T-24 [3], the EC50 stood at 75 µM.
The matching figures for `CC(=O)Oc1ccc(O[C@@H]2OC[C@@H](OC(C)=O)[C@H](OC(C)=O)[C@H]2OC(C)=O)c2ccccc12`: 80 µM, 4.8, 9 and 130 µM.
`CC(=O)Oc1cc(O[C@@H]2OC[C@@H](OC(C)=O)[C@H](OC(C)=O)[C@H]2OC(C)=O)cc2ccccc12`: the GI50 at 96 h in data set [1] is 60 µM. The Ratio came out at 1 in the data set with HFL1 and 3.7 in the data set with T-24 [2]. Also, the EC50 in the data set on T-24 [3] worked out at 65 µM.
Turning to `CC(=O)Oc1ccc2ccc(O[C@@H]3OC[C@@H](OC(C)=O)[C@H](OC(C)=O)[C@H]3OC(C)=O)cc2c1`, in data set [1], the GI50 at 96 h was determined as 85 µM. Moreover, the Ratio stood at 2.2 in the data set on HFL1 and 6.5 with T-24 [2]. Besides, the EC50 in the data set with T-24 [3] was 190 µM.
The corresponding values for `CC(=O)O[C@@H]1[C@@H](OC(C)=O)[C@H](Oc2ccc3ccc(O[C@@H]4OC[C@@H](OC(C)=O)[C@H](OC(C)=O)[C@H]4OC(C)=O)cc3c2)OC[C@H]1OC(C)=O` are 65 µM, 6.4, 5.4 and 60 µM.
On to `CC(=O)Oc1c(O[C@@H]2OC[C@@H](OC(C)=O)[C@H](OC(C)=O)[C@H]2OC(C)=O)ccc2ccccc12`, for which the GI50 at 96 h in data set [1] is 110 µM. The Ratio in the data set with HFL1 is listed as 1.8; in the data set on T-24 [2] it was 7.1. Moreover, the EC50 in the data set with T-24 [3] was determined as 250 µM.
The matching figures for `CC(=O)O[C@@H]1[C@@H](OC(C)=O)[C@H](Oc2cc3ccccc3cc2O[C@@H]2OC[C@@H](OC(C)=O)[C@H](OC(C)=O)[C@H]2OC(C)=O)OC[C@H]1OC(C)=O`: 30 µM, 2.8, 4.2 and 220 µM.
The matching figures for `CC(=O)Oc1cccc2cc(O[C@@H]3OC[C@@H](OC(C)=O)[C@H](OC(C)=O)[C@H]3OC(C)=O)ccc12`: 100 µM, 1.3, 6.9 and 65 µM.
